We go through 3 compounds from PMC4965148 (PLoS ONE, 2016).

The structures appear in SMILES notation. Several values for one entry are separate records, joined by “and”; a condition that tells them apart may be missing. Equal entries are not always repeated. Where two headings read alike, the source gives them in different places.

One assay addresses HEK293/Human α7 nAChR (Homo sapiens, UniProt P36544). Briefly: [3H]-A-585539 filtration binding. Set-up: expressed in transfected cells.
The next assay deals with T1, rat α1β1δε nAChR (Rattus norvegicus, UniProt P09660+P25108+P25109+P25110).
T1 construct: expressed in transfected cells; host or cells: HEK293 (made by Bristol-Myers Squibb)
The assay is described as follows: Ca2+ flux (FLIPR) agonist/antagonist assay. The assay is classed as cell-based.

In another assay the target is T2, rat α4β2 nAChR (Rattus norvegicus, UniProt P09483+P12390).
T2 construct: expressed in transfected cells; host or cells: HEK293 (made by Bristol-Myers Squibb)
The assay is described as follows: Ca2+ flux (FLIPR) agonist/antagonist assay. It counts as cell-based.

For assay [1], the target named is T3, HEK293/rat α7 nAChR cells (Rattus norvegicus, UniProt Q05941).
T3 construct: expressed in transfected cells
The assay is described as follows: Whole cell voltage clamp electrophysiology. The assay is classed as cell-based. The following applies: for Net Charge (Current Area) normalized to 300 µM ACh / Peak Current normalized to 3 mM ACh: individual cells.
Description: Whole-cell voltage clamp studies were conducted on HEK293/rat α7 or HEK293/human α7 nAChR cells. […] Atropine (1 μM) was included in the bathing solution. […] Cells were voltage clamped at a holding potential of -90 mV. Using the Dynaflow microfluidic perfusion system (Cellectricon; flow 26 μl/min) responses to a 300 ms application of ACh or α7 nAChR agonists were measured. Currents were filtered at 2 kHz and sampled at 10 kHz using an EPC-9 amplifier and HEKA Pulse/Patchmaster software. […] The peak current amplitude and net charge crossing the membrane (i.e. the area under the current response curve) induced by agonist application were measured using Clampfit (pClamp Suite) and normalized to the maximal response induced by ACh (3 mM ACh for peak current amplitude and 300 μM ACh for net charge).

The next assay deals with α7 nAChR. The following applies: read-out: reported Ki; cited from earlier work.
For another assay, the target named is T4, HEK293/Human 5-HT3A (Homo sapiens, UniProt P46098).
T4 construct: expressed in transfected cells; host or cells: HEK293 (made by Bristol-Myers Squibb)
T4 sequence (P46098 24-478): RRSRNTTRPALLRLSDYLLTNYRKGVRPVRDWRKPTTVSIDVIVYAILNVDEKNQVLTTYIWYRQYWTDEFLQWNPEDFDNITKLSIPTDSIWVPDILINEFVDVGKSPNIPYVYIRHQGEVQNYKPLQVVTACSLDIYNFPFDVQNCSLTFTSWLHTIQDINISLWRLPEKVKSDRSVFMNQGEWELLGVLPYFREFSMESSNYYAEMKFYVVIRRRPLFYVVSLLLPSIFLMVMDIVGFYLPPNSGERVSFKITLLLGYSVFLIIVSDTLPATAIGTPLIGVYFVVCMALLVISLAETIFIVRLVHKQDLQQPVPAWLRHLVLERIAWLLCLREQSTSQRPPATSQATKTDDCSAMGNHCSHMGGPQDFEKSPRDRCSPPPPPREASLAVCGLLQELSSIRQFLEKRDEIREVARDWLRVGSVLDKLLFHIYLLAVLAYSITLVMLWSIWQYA
Briefly: Ca2+ flux (FLIPR) 5-HT3A antagonist assay. The assay is classed as cell-based. Here is the method: Functional activity was examined using Ca^2+-sensitive, dye-based, microfluorometric assays read on the FLIPR Tetra plate reader platform (Molecular Devices, CA, USA). Cells were plated in 384-well black, clear-bottomed Greiner poly-D-lysine coated plates at a density of ~25 K cells/well and incubated at 29°C for 48 h. Prior to assay, media contents were removed and cells incubated in assay buffer containing 5μM final Fluo-4 dye for 90 min. For nAChR assays, the dye-loading buffer was HBSS (#14175 Life Technologies) supplemented with 20 mM HEPES, 0.5 mM CaCl2, 1 mM MgCl2 and 10 μM atropine (final concentration). Test compounds were solubilized in DMSO and serially diluted in NUNC 384-well plates prior to addition of assay buffer (5.3 mM KCl + 140 mM NaCl + 20 mM Hepes + 25 mM CaCl2 + 1 mM MgCl2 + 10 μM atropine final concentration). Compounds diluted in assay buffer were added to the assay plate by the FLIPR and read for approximately 2 min. […] For 5-HT3A antagonist studies, the dye loading and compound diluent buffer was HBSS (#14025 Life Technologies) supplemented with 20 mM HEPES (final concentration) and the concentration of 5-HT used in the assay was 2 μM. Offline transformation of concentration response data was done using a 4 parameter logistic fit using a Bristol-Myers Squibb proprietary informatics software suite.
On the technique in general: Calcium flux is commonly read through the fluorescence of an indicator in the cells.

A further assay deals with T5, human 5-HT3A receptors (Homo sapiens, UniProt P46098).
T5 sequence (P46098 24-478): T4 sequence (P46098 24-478)
Briefly: biochemical. The following applies: human 5-HT3A Ki, displacement of [3H]-granisetron.

In the next assay the target is T6, rat α3β4 nAChR (Rattus norvegicus, UniProt P04757+P12392).
T6 construct: expressed in transfected cells; host or cells: HEK293 (made by Bristol-Myers Squibb)
Briefly: Ca2+ flux (FLIPR) agonist/antagonist assay. It counts as cell-based.

The target of a further assay is Rat Brain α7 nAChR (Rattus norvegicus, UniProt Q05941). Briefly: [3H]-A-585539 filtration binding.
Rat Brain α7 nAChR, sequence (Q05941 23-502): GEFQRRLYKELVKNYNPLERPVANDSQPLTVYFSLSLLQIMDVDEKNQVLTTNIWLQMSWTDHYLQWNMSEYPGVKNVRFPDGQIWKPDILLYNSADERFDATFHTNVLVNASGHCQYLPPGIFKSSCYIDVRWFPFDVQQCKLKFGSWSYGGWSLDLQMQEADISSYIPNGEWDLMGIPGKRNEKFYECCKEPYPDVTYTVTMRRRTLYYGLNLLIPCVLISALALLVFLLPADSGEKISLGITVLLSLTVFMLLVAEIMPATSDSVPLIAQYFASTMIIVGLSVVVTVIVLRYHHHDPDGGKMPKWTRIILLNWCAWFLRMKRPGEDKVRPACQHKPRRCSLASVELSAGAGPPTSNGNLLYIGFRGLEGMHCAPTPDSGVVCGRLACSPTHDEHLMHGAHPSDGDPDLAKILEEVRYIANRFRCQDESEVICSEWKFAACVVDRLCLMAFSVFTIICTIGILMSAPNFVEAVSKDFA

T1 sequence (P25108 21-457): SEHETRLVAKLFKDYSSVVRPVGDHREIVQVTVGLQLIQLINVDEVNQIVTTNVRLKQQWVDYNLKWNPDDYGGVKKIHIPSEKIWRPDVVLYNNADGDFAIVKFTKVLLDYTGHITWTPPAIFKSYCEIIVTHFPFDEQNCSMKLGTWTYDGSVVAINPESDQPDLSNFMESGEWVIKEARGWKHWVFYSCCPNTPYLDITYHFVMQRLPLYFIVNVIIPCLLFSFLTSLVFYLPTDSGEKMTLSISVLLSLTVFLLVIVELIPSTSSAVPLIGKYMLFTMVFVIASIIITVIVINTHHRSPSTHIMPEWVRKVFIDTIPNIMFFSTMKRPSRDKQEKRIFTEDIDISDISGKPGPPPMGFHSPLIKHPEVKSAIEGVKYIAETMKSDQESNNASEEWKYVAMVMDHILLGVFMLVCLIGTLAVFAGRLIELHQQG
T1 sequence (P25109 24-501): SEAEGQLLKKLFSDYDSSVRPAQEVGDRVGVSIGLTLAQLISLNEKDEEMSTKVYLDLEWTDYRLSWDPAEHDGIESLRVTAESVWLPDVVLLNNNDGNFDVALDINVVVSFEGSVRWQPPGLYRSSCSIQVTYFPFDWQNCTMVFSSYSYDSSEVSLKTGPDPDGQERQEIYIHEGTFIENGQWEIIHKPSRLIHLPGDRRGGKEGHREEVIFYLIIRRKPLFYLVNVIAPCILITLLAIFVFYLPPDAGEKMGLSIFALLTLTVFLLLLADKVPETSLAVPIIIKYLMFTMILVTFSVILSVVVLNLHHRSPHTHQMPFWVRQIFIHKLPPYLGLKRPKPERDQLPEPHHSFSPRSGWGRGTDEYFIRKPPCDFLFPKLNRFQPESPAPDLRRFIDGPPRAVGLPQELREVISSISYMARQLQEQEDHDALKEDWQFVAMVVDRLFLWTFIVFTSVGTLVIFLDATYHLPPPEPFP
T1 sequence (P25110 22-517): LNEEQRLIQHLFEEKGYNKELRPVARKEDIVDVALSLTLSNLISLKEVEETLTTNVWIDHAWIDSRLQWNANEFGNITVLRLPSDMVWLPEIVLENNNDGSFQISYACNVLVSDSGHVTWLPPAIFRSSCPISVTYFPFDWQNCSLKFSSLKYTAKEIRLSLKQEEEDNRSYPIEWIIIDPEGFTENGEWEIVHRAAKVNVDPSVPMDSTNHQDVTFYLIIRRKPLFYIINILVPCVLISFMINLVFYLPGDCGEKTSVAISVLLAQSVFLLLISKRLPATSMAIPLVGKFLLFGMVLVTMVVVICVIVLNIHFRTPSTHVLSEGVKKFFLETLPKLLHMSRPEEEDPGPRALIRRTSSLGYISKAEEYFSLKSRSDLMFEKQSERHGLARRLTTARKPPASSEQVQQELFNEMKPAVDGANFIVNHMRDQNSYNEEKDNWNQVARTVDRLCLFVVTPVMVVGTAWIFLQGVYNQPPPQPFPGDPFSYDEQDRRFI
T1 sequence (P09660 21-494): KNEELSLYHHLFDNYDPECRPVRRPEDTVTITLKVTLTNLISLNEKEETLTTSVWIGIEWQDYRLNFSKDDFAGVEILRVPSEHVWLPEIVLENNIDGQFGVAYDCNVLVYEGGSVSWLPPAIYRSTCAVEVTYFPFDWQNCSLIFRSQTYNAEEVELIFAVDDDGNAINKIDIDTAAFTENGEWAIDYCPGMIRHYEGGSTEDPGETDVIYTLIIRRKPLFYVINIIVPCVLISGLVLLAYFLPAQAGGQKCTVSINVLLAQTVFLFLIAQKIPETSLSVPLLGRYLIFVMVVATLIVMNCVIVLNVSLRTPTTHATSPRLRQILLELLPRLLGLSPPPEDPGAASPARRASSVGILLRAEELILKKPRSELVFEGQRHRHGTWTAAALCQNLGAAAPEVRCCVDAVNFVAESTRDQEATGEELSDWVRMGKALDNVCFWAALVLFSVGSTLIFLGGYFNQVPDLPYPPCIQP
HEK293/Human α7 nAChR, sequence (P36544 23-502): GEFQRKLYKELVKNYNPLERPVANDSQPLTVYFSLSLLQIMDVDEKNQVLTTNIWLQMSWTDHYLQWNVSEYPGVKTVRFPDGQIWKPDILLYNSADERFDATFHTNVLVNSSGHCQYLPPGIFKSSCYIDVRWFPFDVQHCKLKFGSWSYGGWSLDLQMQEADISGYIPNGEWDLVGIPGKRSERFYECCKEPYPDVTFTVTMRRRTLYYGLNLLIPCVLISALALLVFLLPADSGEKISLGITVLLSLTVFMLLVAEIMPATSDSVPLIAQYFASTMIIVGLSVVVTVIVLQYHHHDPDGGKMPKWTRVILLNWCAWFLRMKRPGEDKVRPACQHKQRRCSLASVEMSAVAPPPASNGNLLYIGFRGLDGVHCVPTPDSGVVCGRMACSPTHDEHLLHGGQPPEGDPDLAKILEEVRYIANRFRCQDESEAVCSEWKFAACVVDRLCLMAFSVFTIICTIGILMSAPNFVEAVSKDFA
T3 sequence (Q05941 23-502): as the sequence (Q05941 23-502) above
T6 sequence (P04757 26-499): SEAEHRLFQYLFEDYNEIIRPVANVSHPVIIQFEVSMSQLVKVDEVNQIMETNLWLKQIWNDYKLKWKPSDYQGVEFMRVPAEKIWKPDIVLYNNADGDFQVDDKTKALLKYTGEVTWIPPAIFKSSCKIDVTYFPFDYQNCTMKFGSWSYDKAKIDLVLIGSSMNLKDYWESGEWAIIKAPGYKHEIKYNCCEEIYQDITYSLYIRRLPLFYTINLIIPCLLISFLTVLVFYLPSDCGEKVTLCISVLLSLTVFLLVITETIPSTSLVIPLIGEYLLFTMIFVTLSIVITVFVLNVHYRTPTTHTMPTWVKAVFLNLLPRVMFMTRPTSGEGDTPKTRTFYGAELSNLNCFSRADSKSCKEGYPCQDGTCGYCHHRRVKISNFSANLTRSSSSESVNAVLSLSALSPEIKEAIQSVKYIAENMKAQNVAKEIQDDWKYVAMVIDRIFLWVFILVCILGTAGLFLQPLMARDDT
T6 sequence (P12392 21-495): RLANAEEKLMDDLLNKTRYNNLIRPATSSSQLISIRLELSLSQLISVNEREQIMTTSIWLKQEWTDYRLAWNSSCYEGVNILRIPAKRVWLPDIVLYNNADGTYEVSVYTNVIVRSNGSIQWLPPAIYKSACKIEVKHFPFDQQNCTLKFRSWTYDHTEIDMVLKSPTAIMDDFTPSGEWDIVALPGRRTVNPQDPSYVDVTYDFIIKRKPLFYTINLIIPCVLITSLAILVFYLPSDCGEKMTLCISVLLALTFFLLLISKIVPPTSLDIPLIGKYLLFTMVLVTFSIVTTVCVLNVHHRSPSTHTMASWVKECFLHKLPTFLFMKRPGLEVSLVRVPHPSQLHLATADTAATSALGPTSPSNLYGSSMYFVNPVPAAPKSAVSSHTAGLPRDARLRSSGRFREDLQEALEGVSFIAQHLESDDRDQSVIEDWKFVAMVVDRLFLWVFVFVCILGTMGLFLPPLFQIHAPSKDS
T2 sequence (P09483 31-630): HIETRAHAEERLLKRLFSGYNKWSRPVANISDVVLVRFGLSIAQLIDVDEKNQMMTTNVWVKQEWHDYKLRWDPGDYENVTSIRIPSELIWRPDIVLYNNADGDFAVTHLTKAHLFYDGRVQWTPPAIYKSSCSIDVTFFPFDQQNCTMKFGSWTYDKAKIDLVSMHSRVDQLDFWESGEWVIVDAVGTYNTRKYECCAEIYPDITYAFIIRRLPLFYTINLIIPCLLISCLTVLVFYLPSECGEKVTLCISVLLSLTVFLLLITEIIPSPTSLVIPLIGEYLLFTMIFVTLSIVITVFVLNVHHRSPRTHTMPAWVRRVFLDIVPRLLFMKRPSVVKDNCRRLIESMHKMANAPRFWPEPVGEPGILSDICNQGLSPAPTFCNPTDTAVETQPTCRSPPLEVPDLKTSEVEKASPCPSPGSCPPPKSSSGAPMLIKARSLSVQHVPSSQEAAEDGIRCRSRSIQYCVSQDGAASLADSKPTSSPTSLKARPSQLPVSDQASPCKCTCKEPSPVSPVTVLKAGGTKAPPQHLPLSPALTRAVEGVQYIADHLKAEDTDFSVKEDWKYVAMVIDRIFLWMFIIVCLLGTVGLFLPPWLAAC
T2 sequence (P12390 25-500): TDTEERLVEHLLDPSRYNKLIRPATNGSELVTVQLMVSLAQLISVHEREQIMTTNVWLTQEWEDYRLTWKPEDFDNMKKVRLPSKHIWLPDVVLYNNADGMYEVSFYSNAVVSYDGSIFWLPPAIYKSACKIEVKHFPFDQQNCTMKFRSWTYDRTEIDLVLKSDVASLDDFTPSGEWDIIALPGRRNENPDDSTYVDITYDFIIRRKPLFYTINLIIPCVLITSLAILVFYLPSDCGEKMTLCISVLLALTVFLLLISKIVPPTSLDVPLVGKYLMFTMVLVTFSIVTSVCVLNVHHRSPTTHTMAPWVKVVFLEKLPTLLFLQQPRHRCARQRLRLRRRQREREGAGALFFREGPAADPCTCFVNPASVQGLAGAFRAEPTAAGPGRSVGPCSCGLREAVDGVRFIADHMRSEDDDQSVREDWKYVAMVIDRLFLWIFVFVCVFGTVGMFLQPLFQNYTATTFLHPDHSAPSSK

As to `Clc1ccc(C2CC3CCC2N3)cn1` (racemic) [Epibatidine, (±)epibatidine], the Ki was 10.5 ± 1.58 nM at HEK293/Human α7 nAChR (HEK293/Human α7 nAChR Mean ± SD Ki, displacement of [3H]-A-585539); 9.7 nM (2×) and 12.9 nM and 9.8 nM on HEK293/Human α7 nAChR (HEK293/human α7 nAChR Ki (individual), individual determinations). For the same compound, at rat α1β1δε nAChR, the EC50 is more than 1000 nM.

Turning to `O=C(N[C@@H]1C2CCN(CC2)[C@H]1Cc1cccnc1)c1cc2ccccc2o1` [TC-5619, (2S,3R)-N-[2-(pyridin-3-ylmethyl)-1-azabicyclo[2.2.2]oct-3-yl]benzo[b]furan-2-carboxamide], the EC50 at rat α4β2 nAChR, on rat α1β1δε nAChR and on rat α3β4 nAChR was more than 100000 nM throughout. For the same compound, the “Net Charge (Current Area) normalized to 300 µM ACh” value is 0.01291 and 0.1795 and 0.008199 in assay [1] (0.001 µM); -0.00013 and 0.03241 and 0.001885 in [1] (0.003 µM); 0.000016 and 0.002188 and -0.00959 in assay [1] (0.01 µM); 0.1492 and 0.1468 and 0.2028 in [1] (0.03 µM); 0.6879 and 0.7239 and 0.8481 in [1] (TC-5619 series 0.1 µM); 1.093 and 1.107 and 1.105 in assay [1] (TC-5619 series 0.3 µM). Moreover, the “Net Charge (Current Area) normalized to 300 µM ACh” value is 1.242 and 1.143 and 1.297 in assay [1] (TC-5619 series 1 µM); 1.234 and 1.271 and 1.312 in assay [1] (TC-5619 series 3 µM); 1.226 and 1.317 and 1.306 in assay [1] (TC-5619 series 10 µM). The “Peak Current normalized to 3 mM ACh” value was 0.003543 and 0.01162 and 0.003662 in assay [1] (0.001 µM); 0.003116 and 0.008701 and 0.005453 in assay [1] (0.003 µM); 0.006073 and 0.007536 and 0.009875 in assay [1] (0.01 µM); 0.02004 and 0.01567 and 0.02139 in assay [1] (0.03 µM); 0.05408 and 0.04485 and 0.05183 in assay [1] (TC-5619 series 0.1 µM); 0.1599 and 0.1241 and 0.1149 in assay [1] (TC-5619 series 0.3 µM). The “Peak Current normalized to 3 mM ACh” value is 0.276 and 0.2576 and 0.2679 in assay [1] (TC-5619 series 1 µM); 0.4166 and 0.4279 and 0.4555 in assay [1] (TC-5619 series 3 µM); 0.4847 and 0.4851 and 0.6732 in assay [1] (TC-5619 series 10 µM). In assay [1] (Rat, normalized to 300 μM ACh), the “Mean ± SEM Net Charge Ymax” value stood at 1.26 ± 0.02. The “Mean ± SEM Peak Current Ymaxobs @ 10 μM” value in [1] (Rat, normalized to 3 mM ACh) turned out to be 0.55 ± 0.06. In addition, the Ki on α7 nAChR was 1 nM; at human 5-HT3A receptors, more than 10000 nM. Besides, the IC50 at HEK293/Human 5-HT3A (Ca2+ flux (FLIPR), antagonism of 2 μM 5-HT, read-out: HEK293/Human 5-HT3A Mean ± SD IC50) is more than 100000 nM; on HEK293/Human 5-HT3A (FLIPR, individual determinations, read-out: Human 5-HT3A IC50 values (individual)), more than 100000 nM.

Consider `CN1CC2CN(c3ccc(-c4ccccc4)nn3)CC2C1.Cl.Cl` (stereo not shown) [A-582941, octahydro-2-methyl-5-(6-phenyl-3-pyridazinyl)-pyrrolo[3,4-c]pyrrole dihydrochloride], for which the EC50 at rat α4β2 nAChR (FLIPR agonist mode, read-out: agonist EC50 at α4β2 nAChR) was more than 100000 nM; at rat α1β1δε nAChR (FLIPR agonist mode, read-out: agonist EC50 at α1β1δε nAChR), more than 100000 nM; on rat α3β4 nAChR (FLIPR agonist mode, read-out: agonist EC50 at α3β4 nAChR), more than 100000 nM. For the same compound, the Ki was 23 nM and 20.3 nM on Rat Brain α7 nAChR (Rat Brain α7 nAChR Ki (individual)); 21.7 nM at Rat Brain α7 nAChR (Rat Brain α7 nAChR Mean ± SD Ki); 82.6 nM at HEK293/Human α7 nAChR (HEK293/Human α7 nAChR Mean ± SD Ki); 99 nM and 72.5 nM and 76.3 nM at HEK293/Human α7 nAChR (HEK293/human α7 nAChR Ki (individual)). For the same compound, the “Ratio (5-HT3A IC50 / α7 nAChR EC50; functional selectivity)” value at HEK293/Human 5-HT3A (FLIPR) worked out at 1.1. Besides, the IC50 was 102 ± 86 nM against HEK293/Human 5-HT3A (HEK293/Human 5-HT3A Mean ± SD IC50, Ca2+ flux (FLIPR), antagonism of 2 μM 5-HT); 73 nM and 75 nM and 76 nM and 109 nM and 47 nM and 79 nM and 59 nM and 86 nM and 344 nM and 72 nM on HEK293/Human 5-HT3A (Human 5-HT3A IC50 values (individual), FLIPR, individual determinations).

The Ki is a measure of affinity in units of concentration, obtained from inhibition or displacement. The EC50 is the concentration needed to bring the measured effect to its halfway point.
